Test results: patent US20250288206A1, “SYSTEMS AND METHODS FOR MONITORING OF DELIVERY OF LABEL-FREE DRUGS” (City University of Hong Kong, priority 2024, published 2025)

How the values were obtained:
[1] = Release study of BA-DMSO liposome by dialysis (CEST MRI and UV 257 nm); assay type: physicochemical; settings: at the end of dialysis, BA in 10% DMSO in liposomes
Procedure: The size, polydispersity index (PDI), and surface charge of DMSO liposome were measured by dynamic light scattering using Zetasizer (Malvern Instruments, UK). Liposome concentration was measured by light scattering using NanoSight (Malvern Instruments, UK). To study the release property, dialysis cassettes with molecular weight cut-off of 10 kDa (Thermo Fisher, Waltham, USA) were used. The cassettes were first hydrated in HBS for 2 minutes. 1 mL of liposome sample was then loaded into the membrane chamber of two separate cassettes and excess air was removed by gentle squeezing of the membrane. The loaded cassettes were submerged into two beakers with 50 mL HBS at 37° C. At 15 min, 30 min, 1 hour, and 3 hour, 200 μL of dialyzed liposomes were taken out for CEST MRI measurement. In the other dialysis cassette, 1 mL of dialysis medium were taken out from the cassette at each timepoint for UV spectrometric measurement at an absorbance of 257 nm, and 1 mL of fresh medium was added after each time the medium was taken out. The retention of drug within liposome before and after dialysis was determined by measuring the UV absorbance of the supernatant obtained by treating liposome solutions with 10% Triton-X solution, sonicating at 42° C. for 1 hour, and centrifuging at 10,000 rpm. Concentration of BA was determined from BA standard curve.

[2] = Bloch-McConnell fitting of DMSO CEST peak; assay type: physicochemical; settings: 10% v/v DMSO
Procedure: During the course leading to the present invention, a series of internal and external factors that can influence DMSO's CEST effect were examined. DMSO's concentration linearly correlated with observed signal magnitude, while the change in signal when varying pH from pH 5.5 to pH 8 was less obvious. As temperature went down from 40° C. to 20° C., DMSO's CEST peak gradually moved upfield (please see FIGS. 1F to 1G). It appears that intermolecular interaction between DMSO and water was dependent on temperature. […] Exchange rate and was estimated with Bloch-McConnell fitting. Input of solute concentration was 1.41 M (molar concentration of 10% v/v DMSO) multiplied by a factor of 1.4, which was an estimation of concentration of “structured” water that formed by intermolecular interaction with DMSO and thereby served as relaying sites.

SMILES: O=C1CC(=O)NC(=O)N1 [BA, barbituric acid]
- BA content released [1]: around 80%

SMILES: C[S+](C)[O-] [DMSO, dimethyl sulfoxide]
- estimated exchange rate ([2]; Bloch-McConnell fitting): around 2 Hz
- Kex ([2]; fitted value, B0 3T, B1 1.2 μT, Tsat 4 s): 2.1341 s⁻¹
